# From ChEMBL document CHEMBL5291721, “A preclinical secondary pharmacology resource illuminates target-adverse drug reaction associations of marketed drugs” (Nat Commun, 2023)
# Key:
# Bile salt export pump = Bile salt export pump (Homo sapiens, UniProt O95342); format: functional
# Vasopressin V1a receptor = Vasopressin V1a receptor (Homo sapiens, UniProt P37288)
# [1] = molecular target: T1, 5-hydroxytryptamine receptor 2C (Homo sapiens, UniProt P28335)
# T1 sequence (P28335 whole entry): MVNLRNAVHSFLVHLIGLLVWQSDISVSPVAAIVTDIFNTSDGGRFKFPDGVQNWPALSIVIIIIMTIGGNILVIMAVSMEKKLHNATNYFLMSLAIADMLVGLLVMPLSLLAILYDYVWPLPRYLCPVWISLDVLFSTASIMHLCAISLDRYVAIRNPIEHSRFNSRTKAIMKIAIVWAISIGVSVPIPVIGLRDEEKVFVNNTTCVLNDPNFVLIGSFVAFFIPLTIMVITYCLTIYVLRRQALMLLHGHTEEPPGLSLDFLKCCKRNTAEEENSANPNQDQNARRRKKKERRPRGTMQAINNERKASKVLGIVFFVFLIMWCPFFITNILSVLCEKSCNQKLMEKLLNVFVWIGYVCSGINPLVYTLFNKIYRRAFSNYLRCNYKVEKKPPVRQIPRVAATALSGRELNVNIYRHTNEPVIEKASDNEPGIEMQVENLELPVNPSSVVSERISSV
# [2] = molecular target: Voltage-gated inwardly rectifying potassium channel KCNH2 (Homo sapiens, UniProt Q12809); format: functional; conditions: read-out: AC50
# Adenosine receptor A3 = molecular target: T2, Adenosine receptor A3 (Homo sapiens, UniProt P0DMS8)
# T2 sequence (P0DMS8 whole entry): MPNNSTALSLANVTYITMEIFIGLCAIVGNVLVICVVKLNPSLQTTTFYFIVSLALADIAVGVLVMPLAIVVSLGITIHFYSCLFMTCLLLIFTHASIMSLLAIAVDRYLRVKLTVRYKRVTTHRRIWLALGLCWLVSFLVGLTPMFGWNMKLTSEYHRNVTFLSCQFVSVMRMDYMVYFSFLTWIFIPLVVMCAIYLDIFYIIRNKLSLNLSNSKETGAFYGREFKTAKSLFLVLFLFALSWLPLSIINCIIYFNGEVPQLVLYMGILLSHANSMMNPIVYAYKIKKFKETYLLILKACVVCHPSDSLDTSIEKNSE
# [3] = molecular target: T3, Amine oxidase [flavin-containing] A (Homo sapiens, UniProt P21397); format: functional
# T3 sequence (P21397 whole entry): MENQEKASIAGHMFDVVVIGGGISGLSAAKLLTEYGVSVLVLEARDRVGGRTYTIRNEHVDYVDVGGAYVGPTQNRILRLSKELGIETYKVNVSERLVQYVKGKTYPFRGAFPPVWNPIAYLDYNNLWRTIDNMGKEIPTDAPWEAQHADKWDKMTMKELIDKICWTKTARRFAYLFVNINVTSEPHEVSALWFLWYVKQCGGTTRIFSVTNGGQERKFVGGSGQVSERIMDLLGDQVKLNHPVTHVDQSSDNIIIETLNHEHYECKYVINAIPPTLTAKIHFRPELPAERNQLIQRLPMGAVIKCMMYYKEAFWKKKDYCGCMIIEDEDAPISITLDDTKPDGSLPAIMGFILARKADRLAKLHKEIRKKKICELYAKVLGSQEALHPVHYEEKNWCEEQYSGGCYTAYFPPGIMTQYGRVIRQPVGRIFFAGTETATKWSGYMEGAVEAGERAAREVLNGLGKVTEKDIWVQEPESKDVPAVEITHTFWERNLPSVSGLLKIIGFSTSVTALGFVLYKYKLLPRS
# D(3) dopamine receptor = D(3) dopamine receptor (Homo sapiens, UniProt P35462)
# [4] = molecular target: Sodium-dependent noradrenaline transporter (Homo sapiens, UniProt P23975)
# [5] = molecular target: Neuronal acetylcholine receptor subunit alpha-4 (Homo sapiens, UniProt P43681)
# [6] = molecular target: T4, Prostaglandin G/H synthase 1 (Rattus norvegicus, UniProt Q63921); format: functional
# T4 sequence (Q63921 whole entry): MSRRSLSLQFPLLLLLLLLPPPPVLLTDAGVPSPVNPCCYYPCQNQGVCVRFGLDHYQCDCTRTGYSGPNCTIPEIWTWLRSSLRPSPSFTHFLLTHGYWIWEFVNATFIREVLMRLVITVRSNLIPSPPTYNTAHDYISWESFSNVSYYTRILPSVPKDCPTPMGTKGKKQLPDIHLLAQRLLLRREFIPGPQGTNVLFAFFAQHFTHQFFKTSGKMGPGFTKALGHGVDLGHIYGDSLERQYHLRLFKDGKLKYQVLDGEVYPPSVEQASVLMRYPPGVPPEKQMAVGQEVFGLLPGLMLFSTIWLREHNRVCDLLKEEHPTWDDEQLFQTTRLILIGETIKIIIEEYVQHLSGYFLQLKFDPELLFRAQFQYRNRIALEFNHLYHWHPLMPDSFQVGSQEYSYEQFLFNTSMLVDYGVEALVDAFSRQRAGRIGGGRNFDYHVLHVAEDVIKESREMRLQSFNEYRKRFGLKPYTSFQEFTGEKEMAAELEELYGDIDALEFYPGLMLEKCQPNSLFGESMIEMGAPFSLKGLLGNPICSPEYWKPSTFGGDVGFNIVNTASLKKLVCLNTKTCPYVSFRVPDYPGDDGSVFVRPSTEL
# D(1A) dopamine receptor = D(1A) dopamine receptor (Homo sapiens, UniProt P21728); format: functional, cell-based
# [7] = molecular target: Beta-1 adrenergic receptor (Homo sapiens, UniProt P08588); format: functional
# [8] = molecular target: 5-hydroxytryptamine receptor 2B (Homo sapiens, UniProt P41595); format: functional, cell-based
# [9] = molecular target: T5, 5-hydroxytryptamine receptor 3A (Homo sapiens, UniProt P46098); format: functional
# T5 sequence (P46098 whole entry): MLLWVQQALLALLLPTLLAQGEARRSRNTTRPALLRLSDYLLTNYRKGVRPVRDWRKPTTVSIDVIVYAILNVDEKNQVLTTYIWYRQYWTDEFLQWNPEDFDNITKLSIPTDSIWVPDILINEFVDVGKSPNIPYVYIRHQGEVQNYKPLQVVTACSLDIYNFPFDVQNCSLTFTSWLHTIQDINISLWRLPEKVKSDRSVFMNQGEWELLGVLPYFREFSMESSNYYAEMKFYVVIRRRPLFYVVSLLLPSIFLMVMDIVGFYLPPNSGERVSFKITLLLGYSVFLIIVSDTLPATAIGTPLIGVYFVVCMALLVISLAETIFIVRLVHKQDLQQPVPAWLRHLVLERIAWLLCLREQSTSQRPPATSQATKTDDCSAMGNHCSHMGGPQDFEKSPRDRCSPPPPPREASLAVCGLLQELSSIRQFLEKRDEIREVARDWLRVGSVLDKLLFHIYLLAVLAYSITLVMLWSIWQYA
# Note: assay procedure not described here.
# Chain of D(1A) dopamine receptor (P21728 whole entry): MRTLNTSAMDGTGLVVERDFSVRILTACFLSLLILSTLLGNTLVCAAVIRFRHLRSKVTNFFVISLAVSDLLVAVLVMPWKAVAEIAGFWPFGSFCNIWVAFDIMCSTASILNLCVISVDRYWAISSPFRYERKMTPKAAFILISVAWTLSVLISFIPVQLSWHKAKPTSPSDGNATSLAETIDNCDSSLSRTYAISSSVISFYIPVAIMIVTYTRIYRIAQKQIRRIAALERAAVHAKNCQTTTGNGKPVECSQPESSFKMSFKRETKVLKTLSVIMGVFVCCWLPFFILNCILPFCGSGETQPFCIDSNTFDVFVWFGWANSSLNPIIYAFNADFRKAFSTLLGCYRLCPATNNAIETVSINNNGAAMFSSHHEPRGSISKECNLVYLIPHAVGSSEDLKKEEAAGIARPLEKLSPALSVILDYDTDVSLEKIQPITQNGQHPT
# Chain of Bile salt export pump (O95342 whole entry): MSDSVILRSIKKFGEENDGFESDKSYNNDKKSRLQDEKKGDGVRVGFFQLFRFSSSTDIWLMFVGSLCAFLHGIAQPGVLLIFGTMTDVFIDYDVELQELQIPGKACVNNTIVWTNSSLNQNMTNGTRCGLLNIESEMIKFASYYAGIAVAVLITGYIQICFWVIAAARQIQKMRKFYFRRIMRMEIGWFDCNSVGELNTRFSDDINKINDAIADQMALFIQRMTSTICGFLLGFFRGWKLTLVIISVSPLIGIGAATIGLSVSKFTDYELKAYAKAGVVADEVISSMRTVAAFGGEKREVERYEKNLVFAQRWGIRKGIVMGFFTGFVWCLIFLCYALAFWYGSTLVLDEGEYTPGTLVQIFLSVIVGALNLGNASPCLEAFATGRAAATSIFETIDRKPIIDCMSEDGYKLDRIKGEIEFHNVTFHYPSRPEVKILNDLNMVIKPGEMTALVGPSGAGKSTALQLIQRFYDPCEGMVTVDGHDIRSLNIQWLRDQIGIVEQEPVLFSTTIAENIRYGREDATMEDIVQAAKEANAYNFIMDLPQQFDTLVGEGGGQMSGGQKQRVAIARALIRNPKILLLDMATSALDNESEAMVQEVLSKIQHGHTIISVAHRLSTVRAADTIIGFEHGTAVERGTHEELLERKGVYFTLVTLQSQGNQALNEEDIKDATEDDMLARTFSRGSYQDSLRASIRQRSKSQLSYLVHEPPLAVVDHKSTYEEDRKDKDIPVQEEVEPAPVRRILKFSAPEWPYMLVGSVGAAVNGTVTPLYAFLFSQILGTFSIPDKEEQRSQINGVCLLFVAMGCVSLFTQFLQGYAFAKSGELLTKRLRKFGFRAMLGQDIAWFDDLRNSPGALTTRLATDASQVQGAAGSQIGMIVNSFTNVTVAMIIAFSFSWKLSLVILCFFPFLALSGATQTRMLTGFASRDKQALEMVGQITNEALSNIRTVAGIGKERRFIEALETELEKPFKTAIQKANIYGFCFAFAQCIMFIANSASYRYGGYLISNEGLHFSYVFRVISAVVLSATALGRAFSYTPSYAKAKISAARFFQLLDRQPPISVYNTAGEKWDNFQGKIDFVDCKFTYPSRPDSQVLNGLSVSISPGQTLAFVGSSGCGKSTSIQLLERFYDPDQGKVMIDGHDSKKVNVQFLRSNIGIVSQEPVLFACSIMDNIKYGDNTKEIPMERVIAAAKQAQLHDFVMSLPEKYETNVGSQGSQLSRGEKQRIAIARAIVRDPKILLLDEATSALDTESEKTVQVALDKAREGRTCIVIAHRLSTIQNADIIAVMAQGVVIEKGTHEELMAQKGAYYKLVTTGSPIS
# Chain of Beta-1 adrenergic receptor (P08588 whole entry): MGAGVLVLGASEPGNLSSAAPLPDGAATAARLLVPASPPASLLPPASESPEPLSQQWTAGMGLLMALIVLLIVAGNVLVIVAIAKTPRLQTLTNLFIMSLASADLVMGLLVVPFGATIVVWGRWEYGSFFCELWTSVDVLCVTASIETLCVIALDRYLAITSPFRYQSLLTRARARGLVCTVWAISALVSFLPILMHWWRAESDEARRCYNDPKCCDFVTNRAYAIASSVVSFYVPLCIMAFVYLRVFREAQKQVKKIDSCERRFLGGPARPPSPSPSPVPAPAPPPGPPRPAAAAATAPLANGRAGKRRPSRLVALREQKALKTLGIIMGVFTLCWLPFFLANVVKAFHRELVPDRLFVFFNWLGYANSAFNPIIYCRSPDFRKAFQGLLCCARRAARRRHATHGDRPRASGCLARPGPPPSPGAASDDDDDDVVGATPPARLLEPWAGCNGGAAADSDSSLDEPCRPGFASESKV
# Chain of Vasopressin V1a receptor (P37288 whole entry): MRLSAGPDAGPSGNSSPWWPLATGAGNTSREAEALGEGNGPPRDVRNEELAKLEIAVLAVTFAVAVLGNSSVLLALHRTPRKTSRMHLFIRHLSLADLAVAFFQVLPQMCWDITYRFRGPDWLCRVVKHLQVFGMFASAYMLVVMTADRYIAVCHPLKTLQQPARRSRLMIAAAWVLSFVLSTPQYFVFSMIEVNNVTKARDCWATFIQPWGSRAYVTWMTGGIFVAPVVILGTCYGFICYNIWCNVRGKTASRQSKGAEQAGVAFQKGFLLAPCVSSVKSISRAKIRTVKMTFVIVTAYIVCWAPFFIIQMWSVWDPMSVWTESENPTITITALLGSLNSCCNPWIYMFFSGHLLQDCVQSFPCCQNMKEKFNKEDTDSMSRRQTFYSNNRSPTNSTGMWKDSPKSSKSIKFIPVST
# Chain of Sodium-dependent noradrenaline transporter (P23975 whole entry): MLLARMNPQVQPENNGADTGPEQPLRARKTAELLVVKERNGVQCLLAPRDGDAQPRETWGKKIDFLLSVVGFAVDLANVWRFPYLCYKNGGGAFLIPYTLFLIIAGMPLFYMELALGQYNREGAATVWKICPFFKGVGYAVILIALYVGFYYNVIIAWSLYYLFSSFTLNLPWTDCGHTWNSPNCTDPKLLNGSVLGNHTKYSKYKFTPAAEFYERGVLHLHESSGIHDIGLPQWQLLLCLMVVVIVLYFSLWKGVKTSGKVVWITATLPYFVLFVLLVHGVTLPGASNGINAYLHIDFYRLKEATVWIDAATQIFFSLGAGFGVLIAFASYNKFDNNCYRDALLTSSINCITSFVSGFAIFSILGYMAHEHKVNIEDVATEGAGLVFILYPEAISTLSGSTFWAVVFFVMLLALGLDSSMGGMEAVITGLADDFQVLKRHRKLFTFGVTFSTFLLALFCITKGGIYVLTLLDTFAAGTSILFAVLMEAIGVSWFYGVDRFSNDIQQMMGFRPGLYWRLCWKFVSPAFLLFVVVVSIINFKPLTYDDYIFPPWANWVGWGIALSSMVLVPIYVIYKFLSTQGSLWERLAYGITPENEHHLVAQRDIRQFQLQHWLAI
# Chain of 5-hydroxytryptamine receptor 2B (P41595 whole entry): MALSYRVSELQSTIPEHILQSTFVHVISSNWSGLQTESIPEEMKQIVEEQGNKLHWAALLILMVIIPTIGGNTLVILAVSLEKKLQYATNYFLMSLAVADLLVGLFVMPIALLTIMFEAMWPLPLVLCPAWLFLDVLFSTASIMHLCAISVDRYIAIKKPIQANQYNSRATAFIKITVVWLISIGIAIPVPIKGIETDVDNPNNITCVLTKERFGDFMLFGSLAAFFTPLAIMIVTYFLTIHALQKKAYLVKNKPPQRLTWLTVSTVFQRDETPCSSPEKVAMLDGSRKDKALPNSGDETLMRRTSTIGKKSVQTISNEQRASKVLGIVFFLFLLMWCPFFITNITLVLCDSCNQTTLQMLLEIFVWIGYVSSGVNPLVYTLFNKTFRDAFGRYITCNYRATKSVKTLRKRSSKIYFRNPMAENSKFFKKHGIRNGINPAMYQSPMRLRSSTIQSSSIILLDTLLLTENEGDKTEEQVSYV
# Chain of D(3) dopamine receptor (P35462 whole entry): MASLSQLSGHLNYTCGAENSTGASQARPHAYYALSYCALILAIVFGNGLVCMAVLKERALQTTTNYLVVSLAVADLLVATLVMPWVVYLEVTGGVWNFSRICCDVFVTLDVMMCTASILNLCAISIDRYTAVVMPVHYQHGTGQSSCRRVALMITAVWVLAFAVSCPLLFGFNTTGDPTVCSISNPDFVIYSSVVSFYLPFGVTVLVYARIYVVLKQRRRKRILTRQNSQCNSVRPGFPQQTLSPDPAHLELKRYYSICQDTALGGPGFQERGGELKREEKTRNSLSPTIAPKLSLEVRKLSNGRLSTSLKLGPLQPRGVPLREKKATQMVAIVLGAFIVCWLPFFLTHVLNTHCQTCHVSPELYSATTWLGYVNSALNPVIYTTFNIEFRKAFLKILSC
# Chain of Neuronal acetylcholine receptor subunit alpha-4 (P43681 whole entry): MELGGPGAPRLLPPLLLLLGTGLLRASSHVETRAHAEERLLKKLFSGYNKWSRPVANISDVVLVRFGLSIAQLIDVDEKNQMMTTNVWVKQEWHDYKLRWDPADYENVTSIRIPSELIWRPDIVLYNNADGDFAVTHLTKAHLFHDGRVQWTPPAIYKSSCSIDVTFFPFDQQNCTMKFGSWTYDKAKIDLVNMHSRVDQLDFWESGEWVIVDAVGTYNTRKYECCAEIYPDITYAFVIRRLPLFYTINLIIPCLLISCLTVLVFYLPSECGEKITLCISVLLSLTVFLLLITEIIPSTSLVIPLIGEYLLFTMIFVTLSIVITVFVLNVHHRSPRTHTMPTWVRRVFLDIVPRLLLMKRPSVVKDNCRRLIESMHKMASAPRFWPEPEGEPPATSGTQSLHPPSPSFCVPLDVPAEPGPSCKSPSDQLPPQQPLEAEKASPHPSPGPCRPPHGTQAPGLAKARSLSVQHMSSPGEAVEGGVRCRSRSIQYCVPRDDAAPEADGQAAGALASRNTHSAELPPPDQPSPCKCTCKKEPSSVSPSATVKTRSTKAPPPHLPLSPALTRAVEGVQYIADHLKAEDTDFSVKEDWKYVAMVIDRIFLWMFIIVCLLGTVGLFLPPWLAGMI
SMILES,AC50 (Bile salt export pump) [µM],AC50 (Vasopressin V1a receptor) [µM],AC50 [1] [µM],AC50 [2] [µM],AC50 (Adenosine receptor A3) [µM],AC50 [3] [µM],AC50 (D(3) dopamine receptor) [µM],AC50 [4] [µM],AC50 [5] [µM],AC50 [6] [µM],AC50 (D(1A) dopamine receptor) [µM],AC50 [7] [µM],AC50 [8] [µM],AC50 [9] [µM]
C[N+]1(C)CCC(OC(=O)C(O)(c2ccccc2)C2CCCC2)C1 (stereo not given) [GLYCOPYRRONIUM BROMIDE],> 300,> 30,–,–,–,–,–,–,–,–,–,–,–,–
O=P1(NCCCl)OCCCN1CCCl (stereo not given) [IFOSFAMIDE],> 300,–,> 30,> 30,> 30,> 30,> 30,> 30,> 30,> 30,> 30,> 30,> 30,> 30
C[C@H]1CNCCc2ccc(Cl)cc21 [LORCASERIN],> 300,> 30,–,6.5,> 30,> 30,> 30,14,> 30,> 30,> 30,8.3,–,> 30
Clc1ccc(C(c2ccccc2Cl)C(Cl)Cl)cc1 (stereo not given) [MITOTANE],41,–,> 30,> 30,> 10,> 10,> 30,> 10,> 10,> 10,> 10,> 10,> 10,> 30
Cc1nc([N+](=O)[O-])cn1-c1ccc([N+](=O)[O-])cc1 [NITREFAZOLE],> 300,> 30,> 30,> 30,> 30,> 30,> 30,–,> 30,> 30,> 30,> 30,> 30,> 30
CCCN1C[C@H](CSC)C[C@@H]2c3cccc4[nH]cc(c34)C[C@H]21 [PERGOLIDE],> 10,> 30,–,0.22,> 30,> 30,–,> 30,> 30,> 30,–,> 30,0.0155,> 30
C1CCC(C(CC2CCCCN2)C2CCCCC2)CC1 (stereo not given) [PERHEXILINE],72,> 30,> 30,–,14.1,> 30,> 30,7.24,> 3,> 30,> 30,> 30,12,> 30
c1cnc(N2CCN(Cc3ccc4c(c3)OCO4)CC2)nc1 [PIRIBEDIL],130,> 30,> 30,19,> 30,> 30,7.1,18,> 30,> 30,> 30,–,> 30,> 30
